From PubChem BioAssay (NCI)
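These data come from cells grown in 96-well plates and exposed to compound for 48 hours at five concentrations. Abbreviation: GI50, concentration required for 50% inhibition of growth. Definition used: TGI = concentration required for complete inhibition of growth.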

Legend:
Test in all cases: NCI tumour cell line growth inhibition, 48 h
[1] = test system: K-562 leukemia
[2] = test system: ACHN renal
[3] = test system: 786-0 renal
[4] = test system: UACC-257 melanoma
[5] = test system: EKVX NSCLC
[6] = test system: COLO 205 colon
[7] = test system: U251 CNS
[8] = test system: SNB-75 CNS
[9] = test system: A549 NSCLC
[10] = test system: NCI-H460 lung
[11] = test system: KM12 colon
[12] = test system: SR leukemia
[13] = test system: MALME-3M melanoma
[14] = test system: SW-620 colon
[15] = test system: SNB-19 CNS
[16] = test system: HOP-62 NSCLC
[17] = test system: SK-OV-3 ovarian
[18] = test system: IGROV1 ovarian
[19] = test system: MDA-MB-435
[20] = test system: HOP-92 NSCLC
[21] = test system: MDA-MB-231 breast
[22] = test system: SN12C renal
[23] = test system: LOX IMVI melanoma
[24] = test system: PC-3 prostate
[25] = test system: HCT-15 colon
[26] = test system: NCI-H522 lung
[27] = test system: UO-31 renal
[28] = test system: HS 578T breast
[29] = test system: HCT-116 colon
[30] = test system: MOLT-4 leukemia
[31] = test system: NCI/ADR-RES ovarian
[32] = test system: DU-145 prostate
[33] = test system: CCRF-CEM leukemia
[34] = test system: MCF7 breast
[35] = test system: BT-549 breast
[36] = test system: SK-MEL-5 melanoma
[37] = test system: CAKI-1 renal
[38] = test system: TK-10 renal
[39] = test system: M14 melanoma
[40] = test system: HT29 colon
[41] = test system: OVCAR-3 ovarian
[42] = test system: OVCAR-8 ovarian
[43] = test system: OVCAR-4 ovarian
[44] = test system: OVCAR-5 ovarian
[45] = test system: SK-MEL-2 melanoma
[46] = test system: T-47D breast
[47] = test system: HCC-2998 colon
[48] = test system: UACC-62 melanoma
[49] = test system: SF-295 CNS
[50] = test system: SF-539 CNS
[51] = test system: NCI-H226 lung
[52] = test system: NCI-H23 lung
[53] = test system: SK-MEL-28 melanoma
[54] = test system: SF-268 CNS
[55] = test system: HL-60(TB) leukemia
[56] = test system: RXF 393 renal
[57] = test system: RPMI-8226 leukemia

SMILES: COc1cc2c(cc1OCCCCCn1c(-c3ccc(OCc4ccccc4)cc3)nc3cc(N4CCOCC4)ccc31)N=C[C@@H]1CCCN1C2=O
- TGI [1]: > 100 µM
- GI50 [2]: 2.63 µM
- TGI [2]: 8.31 µM
- GI50 [3]: 3.24 µM
- TGI [3]: > 69.3 µM
- GI50 [4]: 3.04 µM
- TGI [4]: 7.78 µM
- GI50 [5]: 4.74 µM
- TGI [5]: 20.7 µM
- GI50 [6]: 2.15 µM
- TGI [6]: 5.13 µM
- GI50 [7]: 2.23 µM
- TGI [7]: > 100 µM
- GI50 [8]: 1.99 µM
- TGI [8]: 6.63 µM
- GI50 [9]: 2.43 µM
- TGI [9]: 7.95 µM
- GI50 [10]: 2.17 µM
- TGI [10]: 5.93 µM
- GI50 [11]: 1.93 µM
- TGI [11]: 4.73 µM
- GI50 [12]: 1.05 µM
- GI50 [13]: 2.08 µM
- TGI [13]: 4.49 µM
- GI50 [14]: 2.12 µM
- TGI [14]: 8.29 µM
- GI50 [15]: 3.71 µM
- TGI [15]: > 49.8 µM
- GI50 [16]: 3.58 µM
- TGI [16]: 40 µM
- GI50 [17]: 4.16 µM
- TGI [17]: > 100 µM
- GI50 [18]: 1.17 µM
- TGI [18]: 5.88 µM
- GI50 [19]: 1.87 µM
- TGI [19]: 4.38 µM
- GI50 [20]: 2.11 µM
- TGI [20]: 26.2 µM
- GI50 [21]: 2.8 µM
- TGI [21]: > 47.2 µM
- GI50 [22]: 3.11 µM
- TGI [22]: 47 µM
- GI50 [23]: 2.02 µM
- TGI [23]: 7.85 µM
- GI50 [24]: 3.88 µM
- TGI [24]: > 100 µM
- GI50 [25]: 2.81 µM
- TGI [25]: > 31.3 µM
- GI50 [26]: 2.15 µM
- TGI [26]: 8.35 µM
- GI50 [27]: 0.377 µM
- GI50 [28]: 2.84 µM
- TGI [28]: 12.8 µM
- GI50 [29]: 2.39 µM
- TGI [29]: > 100 µM
- GI50 [30]: 2.93 µM
- TGI [30]: > 26.6 µM
- GI50 [31]: 3.3 µM
- TGI [31]: 26.1 µM
- GI50 [32]: 2.57 µM
- TGI [32]: 11.3 µM
- GI50 [33]: 1.4 µM
- GI50 [34]: 1.18 µM
- TGI [34]: 8.77 µM
- GI50 [35]: 1.52 µM
- TGI [35]: 5.68 µM
- GI50 [36]: 1.66 µM
- TGI [36]: 3.13 µM
- GI50 [37]: 1.43 µM
- TGI [37]: 9 µM
- GI50 [38]: 3.45 µM
- TGI [38]: > 36.2 µM
- GI50 [39]: 2 µM
- TGI [39]: 4.56 µM
- GI50 [40]: 3.26 µM
- TGI [40]: > 100 µM
- GI50 [41]: 2.06 µM
- TGI [41]: 5.36 µM
- GI50 [42]: 2.78 µM
- TGI [42]: > 50.9 µM
- GI50 [43]: 3.4 µM
- TGI [43]: 59.4 µM
- GI50 [44]: 3.49 µM
- TGI [44]: > 28.9 µM
- GI50 [45]: 0.729 µM
- TGI [45]: 3.02 µM
- GI50 [46]: 2.17 µM
- TGI [46]: 7.73 µM
- GI50 [47]: 2.09 µM
- TGI [47]: 4.14 µM
- GI50 [48]: 1.72 µM
- TGI [48]: 3.67 µM
- GI50 [49]: 4.84 µM
- TGI [49]: > 100 µM
- GI50 [50]: 2.42 µM
- TGI [50]: 5.41 µM
- GI50 [51]: 1.88 µM
- TGI [51]: 4.56 µM
- GI50 [52]: 2.62 µM
- TGI [52]: 6.53 µM
- GI50 [53]: 2.18 µM
- TGI [53]: 4.61 µM
- GI50 [54]: 2.91 µM
- TGI [54]: 10.4 µM
- GI50 [55]: 2.31 µM
- TGI [55]: > 19.9 µM
- TGI [56]: 2.38 µM

SMILES: [N-]=[N+]=Nc1c(Cc2ccccc2)c(=O)oc2ccccc12
- TGI [1]: 86.9 µM
- TGI [2]: > 100 µM
- TGI [3]: > 100 µM
- TGI [4]: > 100 µM
- TGI [6]: 98.4 µM
- TGI [7]: 69.7 µM
- TGI [8]: > 100 µM
- TGI [9]: > 100 µM
- TGI [10]: 57.3 µM
- TGI [12]: > 100 µM
- TGI [13]: > 100 µM
- TGI [14]: 39.7 µM
- TGI [15]: > 100 µM
- TGI [16]: 50.3 µM
- TGI [17]: > 100 µM
- TGI [18]: 70.6 µM
- TGI [19]: 58.5 µM
- TGI [21]: > 100 µM
- TGI [23]: 28.4 µM
- TGI [24]: > 100 µM
- TGI [25]: > 100 µM
- TGI [27]: > 100 µM
- TGI [28]: 61.3 µM
- TGI [30]: 26.2 µM
- TGI [31]: > 100 µM
- TGI [32]: > 100 µM
- TGI [33]: 45.8 µM
- TGI [34]: 70.9 µM
- TGI [35]: 46.9 µM
- TGI [36]: 20.2 µM
- TGI [37]: > 100 µM
- TGI [38]: 60.4 µM
- TGI [39]: 62.3 µM
- TGI [40]: 54.5 µM
- TGI [41]: > 100 µM
- TGI [43]: > 100 µM
- TGI [44]: > 100 µM
- TGI [45]: 78.8 µM
- TGI [57]: > 100 µM
- TGI [46]: > 100 µM
- TGI [47]: 62.1 µM
- TGI [49]: > 100 µM
- TGI [52]: 78.1 µM
- TGI [54]: 62.1 µM
- TGI [55]: > 100 µM
- TGI [56]: 38 µM

SMILES: CCC(CC)c1nc(Nc2cccc(OC)c2)c2ccccc2n1
- GI50 [1]: 4.3 µM
- TGI [1]: > 50 µM
- GI50 [2]: 7.71 µM
- TGI [2]: 14.4 µM
- GI50 [3]: 11 µM
- TGI [3]: 18.2 µM
- GI50 [4]: 8.06 µM
- TGI [4]: 14.8 µM
- GI50 [5]: 8.05 µM
- TGI [5]: 14.8 µM
- GI50 [6]: 11 µM
- TGI [6]: 18.3 µM
- GI50 [7]: 7.98 µM
- TGI [7]: 14.7 µM
- GI50 [9]: 7.11 µM
- TGI [9]: 13.6 µM
- GI50 [10]: 12.9 µM
- TGI [10]: 38.4 µM
- GI50 [11]: 6.11 µM
- TGI [11]: 12.3 µM
- GI50 [12]: 9.81 µM
- TGI [12]: 24.2 µM
- GI50 [14]: 7.47 µM
- TGI [14]: 14.1 µM
- GI50 [15]: 6.86 µM
- TGI [15]: 13.3 µM
- GI50 [16]: 8.06 µM
- TGI [16]: 14.8 µM
- GI50 [18]: 10.2 µM
- TGI [18]: 19.2 µM
- GI50 [19]: 6.92 µM
- TGI [19]: 13.4 µM
- GI50 [20]: 2.86 µM
- TGI [20]: 9.98 µM
- GI50 [21]: 6.57 µM
- TGI [21]: 12.9 µM
- GI50 [22]: 7.35 µM
- TGI [22]: 13.9 µM
- GI50 [23]: 6.43 µM
- TGI [23]: 12.7 µM
- GI50 [24]: 6.86 µM
- TGI [24]: 13.3 µM
- GI50 [25]: 7.45 µM
- TGI [25]: 14.1 µM
- GI50 [26]: 7.51 µM
- TGI [26]: 15.3 µM
- GI50 [27]: 6.95 µM
- TGI [27]: 13.4 µM
- GI50 [28]: 7.71 µM
- TGI [28]: 15.4 µM
- GI50 [29]: 8.31 µM
- TGI [29]: 15.1 µM
- GI50 [31]: 10.3 µM
- TGI [31]: 17.4 µM
- GI50 [32]: 6.48 µM
- TGI [32]: 12.8 µM
- GI50 [34]: 10.6 µM
- TGI [34]: > 50 µM
- GI50 [35]: 7.19 µM
- TGI [35]: 13.7 µM
- GI50 [36]: 6.07 µM
- TGI [36]: 12.3 µM
- GI50 [37]: 5.9 µM
- TGI [37]: 12 µM
- GI50 [38]: 10.7 µM
- TGI [38]: 17.9 µM
- GI50 [39]: 11.3 µM
- TGI [39]: 18.5 µM
- GI50 [41]: 5.9 µM
- TGI [41]: 12 µM
- GI50 [42]: 8.85 µM
- TGI [42]: 17.9 µM
- GI50 [43]: 6.95 µM
- TGI [43]: 13.6 µM
- GI50 [44]: 9.68 µM
- TGI [44]: 16.7 µM
- GI50 [45]: 7.11 µM
- TGI [45]: 15.2 µM
- GI50 [57]: 5.41 µM
- TGI [57]: 11.3 µM
- GI50 [46]: 0.005 µM
- TGI [46]: 0.234 µM
- GI50 [47]: 7.68 µM
- TGI [47]: 14.3 µM
- GI50 [48]: 7.28 µM
- TGI [48]: 13.8 µM
- GI50 [49]: 6.55 µM
- TGI [49]: 12.9 µM
- GI50 [50]: 8.29 µM
- TGI [50]: 15.1 µM
- GI50 [52]: 8.27 µM
- TGI [52]: 15.1 µM
- GI50 [53]: 6.72 µM
- TGI [53]: 13.1 µM
- GI50 [54]: 11.5 µM
- TGI [54]: 29.5 µM
- GI50 [55]: 12 µM
- TGI [55]: > 50 µM
- GI50 [56]: 7.29 µM
- TGI [56]: 14.7 µM
